This assay concerns MSH3. The assay can be described thus: QPCR assay for levels of MSH3 upon compound treatment in HEK293T or AD293 cells (fold-change of MSH3 transcript, EC50 of MSH3 downregulation; total MSH3 exons 13/14, exons 20/21; Table 8). In kind it is cell-based. The conditions noted are these: Homo sapiens, fold-change of the MSH3 transcript, normalized to GAPDH; for mrna remaining at 1 µM: 1 μM compound; for mrna remaining at 10 µM: 10 μM compound. The procedure:
HEK293T or AD293 cells were treated with Compound 274 at 1 μM and […]. RNA, cDNA and qPCR was prepared using TaqMan Cells-to-CT Express kit (ThermoFisher Scientific). Taqman assays (ThermoFisher Scientific) were used for quantification of total MSH3 exons 13/14 (cat #4351372, ID #: Hs00988993_ml), total MSH3 exons 20/21 (cat #4351372, ID #: Hs00989000_ml), exon 13/PE14A (Fwd: 5′-[…]; Rev: 5′-[…]; Probe: 5′-[…]) and exon 20/PE21A (Fwd: 5′-[…]; Rev: 5′-[…]; Probe: 5′-[…]) mRNA expression. Taqman GAPDH (cat #4448489, ID #: Hs02758991_g1) was used as a reference for data normalization.

Regarding `Cn1ncc(-c2cnc3c(n2)C(=O)N(c2ccc(O[C@H]4C[C@]5(C)CC[C@](C)(C4)N5)nn2)C3)n1` [Compound 498, 6-(6-(((1R,3s,5S)-1,5-dimethyl-8-azabicyclo[3.2.1]octan-3-yl)oxy)pyridazin-3-yl)-3-(2-methyl-2H-1,2,3-triazol-4-yl)-6,7-dihydro-5H-pyrrolo[3,4-b]pyrazin-5-one], the mrna remaining at 1 µM came to 67% and the mrna remaining at 10 µM is 52%.
For `CN(c1ccc(N2Cc3c(O)cc(-c4nn(C)nc4Cl)cc3C2=O)nn1)[C@H]1C[C@]2(C)CC[C@](C)(C1)N2` [Compound 689, 6-(5-chloro-2-methyl-2H-1,2,3-triazol-4-yl)-2-(6-(((1R,3s,5S)-1,5-dimethyl-8-azabicyclo[3.2.1]octan-3-yl)(methyl)amino)pyridazin-3-yl)-4-hydroxyisoindolin-1-one], the mrna remaining at 1 µM was found to be 88% and the mrna remaining at 10 µM was 27%.
On to `Cc1nn(C)nc1-c1cnc2c(c1)C(=O)N(c1ccc(N3CCN4CCC[C@H]4C3)nn1)C2` [Compound 615, (S)-3-(2,5-dimethyl-2H-1,2,3-triazol-4-yl)-6-(6-(hexahydropyrrolo[1,2-a]pyrazin-2(1H)-yl)pyridazin-3-yl)-6,7-dihydro-5H-pyrrolo[3,4-b]pyridin-5-one], for which the mrna remaining at 1 µM amounted to 81% and the mrna remaining at 10 µM was 53%.
For `Cn1nc(Cl)c(-c2cnc3c(c2)C(=O)N(c2ccc(N4CCN5CCC[C@H]5C4)nn2)C3)n1` [Compound 620, (S)-3-(5-chloro-2-methyl-2H-1,2,3-triazol-4-yl)-6-(6-(hexahydropyrrolo[1,2-a]pyrazin-2(1H)-yl)pyridazin-3-yl)-6,7-dihydro-5H-pyrrolo[3,4-b]pyridin-5-one], the mrna remaining at 1 µM came out at 93% and the mrna remaining at 10 µM is 55%.
`CN(c1ccc(N2Cc3cnc(-c4cnn(C)n4)cc3C2=O)nn1)[C@H]1C[C@]2(C)CC[C@](C)(C1)N2` [Compound 70, 2-(6-(((1R,3s,5S)-1,5-dimethyl-8-azabicyclo[3.2.1]octan-3-yl)(methyl)amino)pyridazin-3-yl)-6-(2-methyl-2H-1,2,3-triazol-4-yl)-2,3-dihydro-1H-pyrrolo[3,4-c]pyridin-1-one]: the mrna remaining at 1 µM was 139% and the mrna remaining at 10 µM turned out to be 56%.
For `Cc1nn(C)cc1-c1cc(Cl)c2c(c1)C(=O)N(c1ccc(O[C@H]3C[C@]4(C)CC[C@](C)(C3)N4)nn1)C2` [Compound 447, 4-chloro-6-(1,3-dimethyl-1H-pyrazol-4-yl)-2-(6-(((1R,3s,5S)-1,5-dimethyl-8-azabicyclo[3.2.1]octan-3-yl)oxy)pyridazin-3-yl)isoindolin-1-one], the mrna remaining at 1 µM amounted to 94%.
Turning to `Cn1nc(Cl)c(-c2cnc3c(n2)C(=O)N(c2ccc(OC4CCC(C)(C)NC(C)(C)C4)nn2)C3)n1` (stereo not shown) [Compound 509, 3-(5-chloro-2-methyl-2H-1,2,3-triazol-4-yl)-6-(6-((2,2,7,7-tetramethylazepan-4-yl)oxy)pyridazin-3-yl)-6,7-dihydro-5H-pyrrolo[3,4-b]pyrazin-5-one], the mrna remaining at 1 µM was determined as 117% and the mrna remaining at 10 µM stood at 62%.
Turning to `Cn1ncc(-c2cc(F)c3c(c2)C(=O)N(c2ccc(N4CCN[C@@H](C(C)(C)C)C4)nn2)C3)n1` [Compound 630, (S)-2-(6-(3-(tert-butyl)piperazin-1-yl)pyridazin-3-yl)-4-fluoro-6-(2-methyl-2H-1,2,3-triazol-4-yl)isoindolin-1-one], the mrna remaining at 1 µM was determined as 106% and the mrna remaining at 10 µM was 72%.
Take `CC(C)(O)Cn1cc(-c2cc3c(cn2)CN(c2ccc(O[C@H]4C[C@]5(C)CC[C@](C)(C4)N5)nn2)C3=O)cn1` [Compound 594, 2-(6-(((1R,3s,5S)-1,5-dimethyl-8-azabicyclo[3.2.1]octan-3-yl)oxy)pyridazin-3-yl)-6-(1-(2-hydroxy-2-methylpropyl)-1H-pyrazol-4-yl)-2,3-dihydro-1H-pyrrolo[3,4-c]pyridin-1-one]: the mrna remaining at 1 µM was 79% and the mrna remaining at 10 µM was 112%.
Regarding `CN(C)C1CCN(c2ccc(N3Cc4ncc(-c5nn(C)nc5Cl)cc4C3=O)nn2)CC1` [Compound 618, 3-(5-chloro-2-methyl-2H-1,2,3-triazol-4-yl)-6-(6-(4-(dimethylamino)piperidin-1-yl)pyridazin-3-yl)-6,7-dihydro-5H-pyrrolo[3,4-b]pyridin-5-one], the mrna remaining at 1 µM is 83% and the mrna remaining at 10 µM came to 68%.
With `Cn1ncc(-c2cc3c(cn2)CN(c2ccc(OC4CCC(C)(C)NC(C)(C)C4)nn2)C3=O)n1` (stereo not shown) [Compound 465, 6-(2-methyl-2H-1,2,3-triazol-4-yl)-2-(6-((2,2,7,7-tetramethylazepan-4-yl)oxy)pyridazin-3-yl)-2,3-dihydro-1H-pyrrolo[3,4-c]pyridin-1-one], the mrna remaining at 1 µM was 93% and the mrna remaining at 10 µM stood at 115%.
Regarding `Cc1nn(C)cc1-c1cnc2c(c1)C(=O)N(c1ccc(N3CCN[C@@H](C(C)C)C3)nn1)C2` [Compound 602, (S)-3-(1,3-dimethyl-1H-pyrazol-4-yl)-6-(6-(3-isopropylpiperazin-1-yl)pyridazin-3-yl)-6,7-dihydro-5H-pyrrolo[3,4-b]pyridin-5-one], the mrna remaining at 1 µM is 64% and the mrna remaining at 10 µM turned out to be 29%.
Consider `CC[C@]12CC[C@](C)(C[C@@H](Oc3ccc(N4Cc5cnc(-c6cn(C)nc6C)cc5C4=O)nn3)C1)N2` [Compound 98, 6-(1,3-dimethyl-1H-pyrazol-4-yl)-2-(6-(((1S,3R,5R)-1-ethyl-5-methyl-8-azabicyclo[3.2.1]octan-3-yl)oxy)pyridazin-3-yl)-2,3-dihydro-1H-pyrrolo[3,4-c]pyridin-1-one], for which the mrna remaining at 1 µM stood at 83% and the mrna remaining at 10 µM was 25%.
For `Cn1cc(-c2cnc3c(c2)C(=O)N(c2ccc(OC4CC(C)(C)NC(C)(C)C4)nn2)C3)c(F)n1` [Compound 190, 3-(3-fluoro-1-methyl-1H-pyrazol-4-yl)-6-(6-((2,2,6,6-tetramethylpiperidin-4-yl)oxy)pyridazin-3-yl)-6,7-dihydro-5H-pyrrolo[3,4-b]pyridin-5-one], the mrna remaining at 1 µM is 106% and the mrna remaining at 10 µM came out at 45%.
Take `Cc1nn(C)cc1-c1cnc2c(c1)C(=O)N(c1ccc(O[C@@H]3C[C@@]4(C)CC[C@](C)(N4)[C@H]3F)nn1)C2` [Compound 215, 3-(1,3-dimethyl-1H-pyrazol-4-yl)-6-(6-(((1S,2R,3R,5R)-2-fluoro-1,5-dimethyl-8-azabicyclo[3.2.1]octan-3-yl)oxy)pyridazin-3-yl)-6,7-dihydro-5H-pyrrolo[3,4-b]pyridin-5-one]: the mrna remaining at 1 µM was 97% and the mrna remaining at 10 µM amounted to 76%.
With `Cc1nn(C)nc1-c1cc(Cl)c2c(c1)C(=O)N(c1ccc(O[C@H]3C[C@]4(C)CC[C@](C)(C3)N4)nn1)C2` [Compound 661, 4-chloro-6-(2,5-dimethyl-2H-1,2,3-triazol-4-yl)-2-(6-(((1R,3s,5S)-1,5-dimethyl-8-azabicyclo[3.2.1]octan-3-yl)oxy)pyridazin-3-yl)isoindolin-1-one], the mrna remaining at 1 µM is 155% and the mrna remaining at 10 µM came to 33%.
The matching figures for `Cn1nc(Cl)c(-c2cc(F)c3c(c2)C(=O)N(c2ccc(N4CC5CCC(C4)NC5)nn2)C3)n1` (stereo not shown) [Compound 645]: 87% and 104%.
Take `[2H]C([2H])([2H])n1cc(-c2ccc3c(c2)C(=O)N(c2ccc(N(C)[C@H]4C[C@]5(C)CC[C@](C)(C4)N5)nn2)C3)cn1` [Compound 387, 2-(6-(((1R,3s,5S)-1,5-dimethyl-8-azabicyclo[3.2.1]octan-3-yl)(methyl)amino)pyridazin-3-yl)-6-(1-(methyl-d3)-1H-pyrazol-4-yl)isoindolin-1-one]: the mrna remaining at 1 µM is 96% and the mrna remaining at 10 µM was found to be 63%.
For `Cc1nn(C)nc1-c1cnc2c(c1)C(=O)N(c1ccc(N3CC4CCC3CN4)nn1)C2` (stereo not shown) [Compound 563, 6-(6-(2,5-diazabicyclo[2.2.2]octan-2-yl)pyridazin-3-yl)-3-(2,5-dimethyl-2H-1,2,3-triazol-4-yl)-6,7-dihydro-5H-pyrrolo[3,4-b]pyridin-5-one], the mrna remaining at 1 µM worked out at 104% and the mrna remaining at 10 µM came out at 35%.
Take `Cc1nn(C)nc1-c1cc(F)c2c(c1)C(=O)N(c1ccc(N3CCC(N(C)C)CC3)nn1)C2` [Compound 672, 6-(2,5-dimethyl-2H-1,2,3-triazol-4-yl)-2-(6-(4-(dimethylamino)piperidin-1-yl)pyridazin-3-yl)-4-fluoroisoindolin-1-one]: the mrna remaining at 1 µM was determined as 95% and the mrna remaining at 10 µM amounted to 74%.
The matching figures for `Cc1nn(C)nc1-c1cc(F)c2c(c1)C(=O)N(c1ccc(N3CCNC(C)CC3)nn1)C2` (stereo not shown) [Compound 639, 6-(2,5-dimethyl-2H-1,2,3-triazol-4-yl)-4-fluoro-2-(6-(5-methyl-1,4-diazepan-1-yl)pyridazin-3-yl)isoindolin-1-one]: 118% and 55%.
On to `CN(c1ccc(N2Cc3c(C#N)cc(-c4nn(C)nc4Cl)cc3C2=O)nn1)C1CC(C)(C)NC(C)(C)C1` [Compound 682, 6-(5-chloro-2-methyl-2H-1,2,3-triazol-4-yl)-2-(6-(methyl(2,2,6,6-tetramethylpiperidin-4-yl)amino)pyridazin-3-yl)-1-oxoisoindoline-4-carbonitrile], for which the mrna remaining at 1 µM worked out at 77% and the mrna remaining at 10 µM was determined as 17%.

For the origin of these results see patent US20260315464A1, “COMPOSITIONS, METHODS, AND SYSTEMS FOR MODULATING SPLICING OF MSH3” (REVIR THERAPEUTICS, INC., priority 2023, published 2026).
